Data: ChEMBL document CHEMBL4613208, “Isatin derivatives and their anti-bacterial activities” (Eur J Med Chem, 2019)
Values after ≈ are worked out from the molar mass of the structure shown.

Key:
[1] = test system: Staphylococcus epidermidis; assay: Antibacterial activity against Staphylococcus epidermidis after 24 hrs by paper disc diffusion technique; assay type: functional; conditions: Staphylococcus epidermidis, 24 h; read-out: MIC
Pseudomonas aeruginosa [2] = assay: Antibacterial activity against Pseudomonas aeruginosa after 24 hrs by paper disc diffusion technique; assay type: functional; conditions: Pseudomonas aeruginosa, 24 h; read-out: MIC
Klebsiella pneumoniae = assay: Antibacterial activity against Klebsiella pneumoniae after 24 hrs by paper disc diffusion technique; assay type: functional; conditions: Klebsiella pneumoniae, 24 h; read-out: MIC
Staphylococcus aureus [3] = assay: Antibacterial activity against Staphylococcus aureus after 24 hrs by paper disc diffusion technique; assay type: functional; conditions: Staphylococcus aureus, 24 h; read-out: MIC
Micrococcus luteus = assay: Antibacterial activity against Micrococcus luteus after 24 hrs by paper disc diffusion technique; assay type: functional; conditions: Micrococcus luteus, 24 h; read-out: MIC
Escherichia coli [4] = assay: Antibacterial activity against Escherichia coli after 24 hrs by paper disc diffusion technique; assay type: functional; conditions: Escherichia coli, 24 h; read-out: MIC
Escherichia coli [5] = assay: Antibacterial activity against Escherichia coli assessed as zone of inhibition at 20 mg/ml; assay type: functional; conditions: read-out: IZ
Pseudomonas aeruginosa [6] = assay: Antibacterial activity against Pseudomonas aeruginosa assessed as zone of inhibition at 20 mg/ml; assay type: functional; conditions: read-out: IZ
Bacillus subtilis [7] = assay: Antibacterial activity against Bacillus subtilis assessed as zone of inhibition at 20 mg/ml; assay type: functional; conditions: read-out: IZ
Staphylococcus aureus [8] = assay: Antibacterial activity against Staphylococcus aureus assessed as zone of inhibition at 20 mg/ml; assay type: functional; conditions: read-out: IZ
Staphylococcus aureus [9] = assay: Antibacterial activity against Staphylococcus aureus by two-fold serial dilution technique; assay type: functional
Escherichia coli [10] = assay: Antibacterial activity against Escherichia coli by two-fold serial dilution technique; assay type: functional
Pseudomonas aeruginosa [11] = assay: Antibacterial activity against Pseudomonas aeruginosa by two-fold serial dilution technique; assay type: functional
Bacillus subtilis [12] = assay: Antibacterial activity against Bacillus subtilis by two-fold serial dilution technique; assay type: functional
Escherichia coli [13] = assay: Antibacterial activity against Escherichia coli ATCC 25922 after 24 hrs by agar well diffusion technique; assay type: functional; conditions: ATCC 25922, 24 h
Staphylococcus aureus [14] = assay: Antibacterial activity against Staphylococcus aureus ATCC 25923 after 24 hrs by agar well diffusion technique; assay type: functional; conditions: ATCC 25923, 24 h
Shigella dysenteriae = assay: Antibacterial activity against Shigella dysenteriae after 24 hrs by agar well diffusion technique; assay type: functional
Bacillus cereus = assay: Antibacterial activity against Bacillus cereus after 24 hrs by agar well diffusion technique; assay type: functional
Staphylococcus aureus [15] = assay: Antibacterial activity against Staphylococcus aureus; assay type: functional, organism-based
Pseudomonas aeruginosa [16] = assay: Antibacterial activity against Pseudomonas aeruginosa; assay type: functional, organism-based
Escherichia coli [17] = assay: Antibacterial activity against Escherichia coli; assay type: functional, organism-based

COc1cc(/C=N/c2ccc(/N=C3/C(=O)N(CN4CCN(c5cc6c(cc5F)c(=O)c(C(=O)O)cn6C5CC5)CC4)c4ccc(F)cc43)cc2)ccc1O
MIC [1]: 7.81 to 125 µg/mL (≈ 10.7 to 171 µM)
MIC (Pseudomonas aeruginosa [2]): 7.81 to 125 µg/mL (≈ 10.7 to 171 µM)
MIC (Klebsiella pneumoniae): 7.81 to 125 µg/mL (≈ 10.7 to 171 µM)
MIC (Staphylococcus aureus [3]): 7.81 to 125 µg/mL (≈ 10.7 to 171 µM)
MIC (Micrococcus luteus): 7.81 to 125 µg/mL (≈ 10.7 to 171 µM)
MIC (Escherichia coli [4]): 7.81 to 125 µg/mL (≈ 10.7 to 171 µM)

CCOC(=O)c1c(NC(C)(C)C)oc(N(C(=O)CN2C(=O)/C(=C3/C(=O)N(CO)c4ccccc43)SC2=S)C(C)(C)C)c1C(=O)OCC
zone of inhibition at 20000 µg/mL (Escherichia coli [5]): 15.6 to 26 mm
zone of inhibition at 20000 µg/mL (Pseudomonas aeruginosa [6]): 15.6 to 26 mm
zone of inhibition at 20000 µg/mL (Bacillus subtilis [7]): 15.6 to 26 mm
zone of inhibition at 20000 µg/mL (Staphylococcus aureus [8]): 15.6 to 26 mm

O=C(N/N=C1\C(=O)Nc2ccccc21)N/N=C1\C(=O)Nc2ccccc21
MIC (Staphylococcus aureus [9]): 6.25 to 100 µg/mL (≈ 17.9 to 287 µM)
MIC (Escherichia coli [10]): 6.25 to 100 µg/mL (≈ 17.9 to 287 µM)
MIC (Pseudomonas aeruginosa [11]): 6.25 to 100 µg/mL (≈ 17.9 to 287 µM)
MIC (Bacillus subtilis [12]): 6.25 to 100 µg/mL (≈ 17.9 to 287 µM)

O=C(N/N=C1\C(=O)Nc2ccc([N+](=O)[O-])cc21)N/N=C1\C(=O)Nc2ccc([N+](=O)[O-])cc21
MIC (Staphylococcus aureus [9]): 6.25 to 100 µg/mL (≈ 14.3 to 228 µM)
MIC (Escherichia coli [10]): 6.25 to 100 µg/mL (≈ 14.3 to 228 µM)
MIC (Pseudomonas aeruginosa [11]): 6.25 to 100 µg/mL (≈ 14.3 to 228 µM)
MIC (Bacillus subtilis [12]): 6.25 to 100 µg/mL (≈ 14.3 to 228 µM)

Cc1cc(NS(=O)(=O)c2ccc(N)cc2)no1 [SULFAMETHOXAZOLE]
MIC (Escherichia coli [13]): 2.5 µg/mL (≈ 9.87 µM)
MIC (Staphylococcus aureus [14]): 2.5 µg/mL (≈ 9.87 µM)
MIC (Shigella dysenteriae): 2.5 µg/mL (≈ 9.87 µM)
MIC (Bacillus cereus): 2.5 µg/mL (≈ 9.87 µM)

O=C(O)c1cn(C2CC2)c2cc(N3CCN(CN4C(=O)/C(=N/c5ccc(/N=C/c6ccccc6O)cc5)c5cc(F)ccc54)CC3)c(F)cc2c1=O
MIC [1]: 7.81 to 125 µg/mL (≈ 11.1 to 178 µM)
MIC (Pseudomonas aeruginosa [2]): 7.81 to 125 µg/mL (≈ 11.1 to 178 µM)
MIC (Klebsiella pneumoniae): 7.81 to 125 µg/mL (≈ 11.1 to 178 µM)
MIC (Staphylococcus aureus [3]): 7.81 to 125 µg/mL (≈ 11.1 to 178 µM)
MIC (Micrococcus luteus): 7.81 to 125 µg/mL (≈ 11.1 to 178 µM)
MIC (Escherichia coli [4]): 7.81 to 125 µg/mL (≈ 11.1 to 178 µM)

Cc1c(C)c2c(c(C)c1O)CCC(C)(C(=O)N/N=C1\C(=O)Nc3ccc(Br)cc31)O2 (centres undefined)
MIC (Staphylococcus aureus [15]): 12.5 to 100 µg/mL (≈ 26.5 to 212 µM)
MIC (Pseudomonas aeruginosa [16]): 12.5 to 100 µg/mL (≈ 26.5 to 212 µM)
MIC (Escherichia coli [17]): 12.5 to 100 µg/mL (≈ 26.5 to 212 µM)

CCOC(=O)CN1C(=O)/C(=C2\SC(=S)N(CC(=O)N(c3oc(NC(C)(C)C)c(C(=O)OC)c3C(=O)OC)C(C)(C)C)C2=O)c2cc(Cl)ccc21
zone of inhibition at 20000 µg/mL (Escherichia coli [5]): 15.6 to 26 mm
zone of inhibition at 20000 µg/mL (Pseudomonas aeruginosa [6]): 15.6 to 26 mm
zone of inhibition at 20000 µg/mL (Bacillus subtilis [7]): 15.6 to 26 mm
zone of inhibition at 20000 µg/mL (Staphylococcus aureus [8]): 15.6 to 26 mm

COc1cc(/C=N/N2C(N)=NNC23C(=O)Nc2ccc(C)cc23)ccc1O (centres undefined)
MIC (Escherichia coli [13]): 1 to 15 µg/mL (≈ 2.73 to 40.9 µM)
MIC (Staphylococcus aureus [14]): 1 to 15 µg/mL (≈ 2.73 to 40.9 µM)
MIC (Shigella dysenteriae): 1 to 15 µg/mL (≈ 2.73 to 40.9 µM)
MIC (Bacillus cereus): 1 to 15 µg/mL (≈ 2.73 to 40.9 µM)
